Experimental data taken from patent publication US20140294991A1, “MEDICAMENT FOR TREATING ANTERIOR EYE DISEASE COMPRISING REBAMIPIDE AND A TEAR-RETAINING AGENT” (OTSUKA PHARMACEUTICAL CO., LTD., priority 2011, published 2014).

Test system: tear deficient rat model
Test: Tear volume by Schirmer's test in capsaicin-induced tear deficient rat model
Assay type: in vivo, Wister/ST rat
Conditions: Pharmacological Experiment 3; repeated administration test; compared with non-treated group (FIG. 5)
Protocol: To evaluate the utility of a combination of rebamipide and a tear-retaining agent or an artificial tear, rebamipide and sodium hyaluronate were administrated in combination to a tear deficient rat model, and the tear volume was measured and the corneal epithelial damage was evaluated. The tests were carried out in single administration and repeated administration.
Capsaicin (50 mg/kg) was administered to a 4-day-old Wister/ST rat, and 4 weeks later the rat was used as a tear deficient rat model.
For the single administration test, 5 μl of each drug solution for one eye was topically administrated to the rats of the “2% rebamipide-treated” group, “0.1% sodium hyaluronate-treated” group, and “2% rebamipide+0.1% sodium hyaluronate-treated” group. For the combination administration, 0.1% sodium hyaluronate was administrated 5 minutes after the administration of 2% rebamipide.
For the repeated administration test, 5 μl of each drug solution for one eye was topically administrated to the rats of the “2% rebamipide-treated” group (4 times/day), “0.1% sodium hyaluronate-treated” group (6 times/day), and “2% rebamipide (4 times/day)+0.1% sodium hyaluronate (6 times/day)-treated” group. […]
The tear volumes were measured as an index of a tear-retention capacity by Schirmer's test.

O=C(NC(Cc1cc(=O)[nH]c2ccccc12)C(=O)O)c1ccc(Cl)cc1 (stereo not shown) [rebamipide, 2-(4-chlorobenzoylamino)-3-[2(1H)-quinolin-4-yl]propionic acid]
tear volume (tear-retention capacity): significantly higher
